Test results reported in patent publication US9126978B2, “1,4-benzodiazepine-2,5-diones and related compounds with therapeutic properties” (The Regents of the University of Michigan, priority 2009, dated 2015).

Experiments:
[1] = molecular target: ROCK-I (h, amino acids 17-535) (Homo sapiens (Human), UniProt Q13464); assay: ROCK-I (h) inhibition assay; type: biochemical; settings: radiometric [γ-32P-ATP] filter assay, 40 minutes at room temperature; read-out: ROCK1 IC50
Method: ROCK-I (h) Inhibition Assay:
In a final reaction volume of 25 μL, ROCK-I (h, amino acids 17-535) (5-10 mU) was incubated with 8 mM MOPS pH 7.0, 0.2 mM EDTA, 30 μM […], 10 mM magnesium acetate and [γ-^32P-ATP] (specific activity approx. 500 cpm/pmol, concentration as required). The reaction was initiated by the addition of the MgATP mix. After incubation for 40 minutes at room temperature, the reaction was stopped by the addition of 5 μL of a 3% phosphoric acid solution. 10 μL of the reaction was then spotted onto a P30 filtermat and washed three times for 5 minutes in 75 mM phosphoric acid and once in methanol prior to drying and scintillation counting.

[2] = molecular target: ROCK-II (h, amino acids 11-552) (Homo sapiens (Human), UniProt O75116); assay: ROCK-II (h) inhibition assay; type: biochemical; settings: radiometric [γ-32P-ATP] filter assay, 40 minutes at room temperature; read-out: ROCK2 IC50
Method: ROCK-II (h) Inhibition Assay:
In a final reaction volume of 25 μL, ROCK-II (h, amino acids 11-552) (5-10 mU) was incubated with 50 mM Tris pH 7.5, 0.1 mM EGTA, 30 μM […], 10 mM magnesium acetate and [γ-^32P-ATP] (specific activity approx. 500 cpm/pmol, concentration as required). The reaction was initiated by the addition of the MgATP mix. After incubation for 40 minutes at room temperature, the reaction was stopped by the addition of 5 μL of a 3% phosphoric acid solution. 10 μL of the reaction was then spotted onto a P30 filter-mat and washed three times for 5 minutes in 75 mM phosphoric acid and once in methanol prior to drying and scintillation counting.

Sequence of ROCK-I (h, amino acids 17-535) (Q13464 17-535): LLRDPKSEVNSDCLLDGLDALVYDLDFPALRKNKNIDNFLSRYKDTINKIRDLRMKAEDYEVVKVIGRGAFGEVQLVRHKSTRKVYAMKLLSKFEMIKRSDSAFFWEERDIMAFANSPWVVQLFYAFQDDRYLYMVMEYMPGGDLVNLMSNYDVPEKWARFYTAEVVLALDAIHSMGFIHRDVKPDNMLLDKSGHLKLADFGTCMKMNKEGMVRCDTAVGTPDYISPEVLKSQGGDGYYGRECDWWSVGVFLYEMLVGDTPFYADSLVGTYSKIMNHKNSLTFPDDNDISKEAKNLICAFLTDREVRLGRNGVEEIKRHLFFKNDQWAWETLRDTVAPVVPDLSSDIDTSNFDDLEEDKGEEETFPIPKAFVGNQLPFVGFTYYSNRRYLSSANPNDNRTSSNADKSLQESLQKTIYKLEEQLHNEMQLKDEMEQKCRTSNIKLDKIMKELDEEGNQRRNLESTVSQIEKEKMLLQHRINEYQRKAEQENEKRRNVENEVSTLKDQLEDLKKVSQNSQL
Sequence of ROCK-II (h, amino acids 11-552) (O75116 11-552): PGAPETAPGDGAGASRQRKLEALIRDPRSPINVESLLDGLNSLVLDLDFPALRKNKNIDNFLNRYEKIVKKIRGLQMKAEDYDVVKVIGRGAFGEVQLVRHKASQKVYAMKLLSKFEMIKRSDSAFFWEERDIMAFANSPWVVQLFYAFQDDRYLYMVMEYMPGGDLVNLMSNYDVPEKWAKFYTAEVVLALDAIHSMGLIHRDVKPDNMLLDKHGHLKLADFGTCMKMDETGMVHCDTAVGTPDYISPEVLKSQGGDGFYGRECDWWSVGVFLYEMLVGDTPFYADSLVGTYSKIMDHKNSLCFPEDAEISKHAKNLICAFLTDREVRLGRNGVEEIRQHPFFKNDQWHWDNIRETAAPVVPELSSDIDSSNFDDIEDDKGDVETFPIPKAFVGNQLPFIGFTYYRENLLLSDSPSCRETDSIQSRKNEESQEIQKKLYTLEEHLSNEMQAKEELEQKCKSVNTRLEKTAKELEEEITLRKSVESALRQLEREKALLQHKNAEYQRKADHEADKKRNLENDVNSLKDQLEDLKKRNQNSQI

SMILES: CN1C(=O)[C@@H](Cc2ccc(-c3ccncc3)cc2)NC(=O)c2cc(Cl)ccc21 [Compound 1, (R)-7-chloro-1-methyl-3-(4-(pyridin-4-yl)benzyl)-3,4-dihydro-1H-benzo[e][1,4]diazepine-2,5-dione]
- IC50 [1]: > 30 µM
- IC50 [2]: 1100 nM

SMILES: C[C@@]1(Cc2ccc(-c3ccncc3)cc2)NC(=O)c2cc(Cl)ccc2NC1=O [Compound 2, (S)-7-chloro-3-methyl-3-(4-(pyridin-4-yl)benzyl)-3,4-dihydro-1H-benzo[e][1,4]diazepine-2,5-dione]
- IC50 [1]: > 10 µM

SMILES: CN1C(=O)[C@@H](Cc2ccc(-c3ccncc3)cc2)NC(=O)c2c(Cl)cccc21 [Compound 3, (R)-6-chloro-1-methyl-3-(4-(pyridin-4-yl)benzyl)-3,4-dihydro-1H-benzo[e][1,4]diazepine-2,5-dione]
- IC50 [1]: > 30 µM
- IC50 [2]: 860 nM

SMILES: CN1C(=O)[C@@H](Cc2ccc(-c3ccncc3)cc2)NC(=O)c2ccc(Cl)cc21 [Compound 4, (R)-8-chloro-1-methyl-3-(4-(pyridin-4-yl)benzyl)-3,4-dihydro-1H-benzo[e][1,4]diazepine-2,5-dione]
- IC50 [1]: > 10 µM
- IC50 [2]: 800 nM

SMILES: CN1C(=O)[C@@H](Cc2ccc(-c3ccncc3)cc2)NC(=O)c2cccc(Cl)c21 [Compound 5, (R)-9-chloro-1-methyl-3-(4-(pyridin-4-yl)benzyl)-3,4-dihydro-1H-benzo[e][1,4]diazepine-2,5-dione]
- IC50 [1]: > 10 µM
